Reference: patent publication US20120064135A1, “Benzoyl Peroxide Composition, Methods for Making Same, and Pharmaceutical or Cosmetic Formulations Comprising Same, and Uses Thereof” (Norac Pharma, priority 2010, published 2012)

What was measured:
[1] = cited from earlier work
[2] = Stability of tazarotene with BP-CB or BPO in polyacrylic acid gel, stored at 30° C., HPLC peak area; format: physicochemical; details: after 834 h at 30° C.; with tazarotene in polyacrylic acid (PAA) gel
Method: These stability studies are set up to examine BP-CB/BPO with various APIs in aqueous gel formulations. In one study, tazarotene is used as the API. Tazarotene and BP-CB or BPO are placed into a polyacrylic acid (PAA) gel in vials and stored at 30° C. The vials are analyzed by HPLC and the area from the tazarotene peak is monitored. […] These values are compared on the area from the To results.
(§1) BPO Study—Polyacrylic acid gel is prepared by stirring polyacrylic acid (2.5 g) in deionized water (100 mL) at 50° C. for 2 h. The gel is allowed to cool to ambient temperature. The gel (500 mg) is weighed out into each of the 4-dram vials. Into the same vials is placed hydrous benzoyl peroxide (390 mg, 74.6% by wt) and tazarotene (375 mg). The contents are mixed thoroughly then the vials are stored at 30° C.
as §1, with “BP-CB” for “BPO”, “BP-CB (447” for “hydrous benzoyl peroxide (390”, “65% BPO” for “74.6%”
Analysis—At certain time points, the vials are analyzed by HPLC. […] For To, a vial is removed and analyzed before the samples are heated to 30° C. […]

[3] = Stability of clindamycin hydrochloride mixed with BP-CB or BPO, stored in vials at 30° C., HPLC peak area; format: physicochemical; details: after 216 h at 30° C.
Method: The stability of the benzoyl peroxide (BP-CB) formulation of the present invention is compared with benzoyl peroxide (BPO) in non-invention drug formulations. In one study, clindamycin hydrochloride is used as the API. Clindamycin hydrochloride and BP-CB or BPO are placed in vials and stored at 30° C. The vials are analyzed by HPLC and the area from the clindamycin hydrochloride peak is monitored. […] These values are in comparison to the area from the T0 results. BPO Study—Into clear one dram vials is placed hydrous benzoyl peroxide (26 mg, 75.0% by wt) and clindamycin hydrochloride (20 mg). The contents are mixed thoroughly. Then the vials are stored at 30° C. BP-CB Study—Into clear one dram vials is placed BP-CB (30 mg, 65% BPO by wt) and clindamycin hydrochloride (20 mg). The contents are mixed thoroughly then the vials are stored at 30° C. Analysis—At certain time points, the vials are analyzed by HPLC. Prior to analysis, a mixture of methanol and acetonitrile (10 mL total, 1:1 by volume) is added to dissolve the contents of the vial. The solution is used for HPLC analysis. For T0, a vial is removed and analyzed before the samples are heated to 30° C. • To prepare 1 L solution, transfer 1000 mL DI water into a suitable reservoir. Add 6.81 g of KH2PO4, and then adjust pH to 3.1 with H3PO4. Mix well. Degas solution thoroughly before use. [table]

| decrease of HPLC area of the tazarotene peak compared to T0 [2] [%] | decrease of HPLC area of the clindamycin hydrochloride peak in comparison to T0 [3] [%] | SMILES | pKa [1] |
| --- | --- | --- | --- |
|  |  | CC1=C(/C=C/C(C)=C/C=C/C(C)=C/C(=O)O)C(C)(C)CCC1 [tretinoin] | 3.8 |
| 88 | 87.0 | O=C(OOC(=O)c1ccccc1)c1ccccc1 [BPO, benzoyl peroxide] |  |
